Reference: patent US10865191B2, “Heterocyclic compounds useful as modulators of TNF alpha” (BRISTOL-MYERS SQUIBB COMPANY, priority 2015, dated 2020)

Target: TNFα (Homo sapiens, UniProt P01375)
Assay: TNF induced HEK-Blue assay (NF-kB-driven secreted alkaline phosphatase reporter)
Type: cell-based
Details: TNFα 0.5 ng/mL, HEK-Blue-CD40L cells, 18 h; read-out: TNF induced HEK-Blue assay IC50 value
In short: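 HEK-Blue-CD40L cells (NF-kB-driven SEAP reporter), 20,000/well, added after 30 min pre-incubation of compound (0.004–25 μM final) with TNFα 0.5 ng/mL final at 37 °C; 18 h incubation. SEAP read with QUANTI-Blue at 620 nm; IC50 from 4-parameter logistic fit, normalized to unstimulated and stimulated DMSO controls.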

TNFα, sequence (P01375 77-233 limits assumed): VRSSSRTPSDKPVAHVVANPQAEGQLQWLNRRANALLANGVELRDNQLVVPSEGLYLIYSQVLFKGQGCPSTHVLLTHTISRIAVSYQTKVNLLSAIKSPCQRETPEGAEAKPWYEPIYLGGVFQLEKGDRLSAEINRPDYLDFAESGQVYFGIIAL

IC50	Structure (SMILES)
1000 to 10000 nM	Fc1ccc(Br)cc1[C@@H](Nc1c(Cl)cnc2ccccc12)C(F)F [Example 510, (R)—N-(1-(5-bromo-2-fluorophenyl)-2,2-difluoroethyl)-3-chloroquinolin-4-amine]
< 1000 nM	CC(C)(O)c1ncc(-c2ccc3ncc(Cl)c(NC(CCF)c4ccccc4F)c3c2)cn1 (racemic) [Example 230, 2-(5-(3-chloro-4-((3-fluoro-1-(2-fluorophenyl)propyl)amino)quinolin-6-yl)pyrimidin-2-yl) propan-2-ol]
< 1000 nM	C=Cc1ccc(F)c([C@H](Nc2c(Cl)cnc3cc(F)c(-c4cnc(C(C)(C)O)nc4)nc23)C(F)F)c1 [Example 495, (S)-2-(5-(7-chloro-8-((2,2-difluoro-1-(2-fluoro-5-vinylphenyl)ethyl)amino)-3-fluoro-1,5-naphthyridin-2-yl)pyrimidin-2-yl)propan-2-ol]
1000 to 10000 nM	Cc1nc2cc(F)c(-c3cnc(N4CCNC(=O)C4)nc3)cc2c(N[C@H](C)c2cc(Br)ccc2F)c1Cl [Example 560, (R)-4-(5-(4-((1-(5-bromo-2-fluorophenyl)ethyl)amino)-3-chloro-7-fluoro-2-methylquinolin-6-yl)pyrimidin-2-yl)piperazin-2-one]
< 1000 nM	C[C@@H](Nc1c(Cl)cnc2ccc(-c3cnc(C(C)(C)O)nc3)cc12)c1cc(S(C)(=O)=O)ccc1F [Example 425, (R)-2-(5-(3-chloro-4-((1-(2-fluoro-5-(methylsulfonyl)phenyl)ethyl)amino)quinolin-6-yl)pyrimidin-2-yl)propan-2-ol]
< 1000 nM	CC(Nc1c(Cl)cnc2cc(F)c(-c3cnc(N4CCN(C(=O)[C@@H](N)CC(=O)O)CC4)nc3)cc12)c1ccccc1F (single isomer, unassigned) [Example 605, (3 S)-3-amino-4-(4-(5-(3-chloro-7-fluoro-4-((1-(2-fluorophenyl)ethyl)amino)quinolin-6-yl)pyrimidin-2-yl)piperazin-1-yl)-4-oxobutanoic acid]
< 1000 nM	C[C@@H](Nc1c(Cl)cnc2ccc(-c3cnc(C(C)(C)O)nc3)cc12)c1cc(N2CCCC2=O)ccc1F [Example 362, (R)-1-(3-(1-((3-chloro-6-(2-(2-hydroxypropan-2-yl)pyrimidin-5-yl)quinolin-4-yl)amino)ethyl)-4-fluorophenyl)pyrrolidin-2-one]
1000 to 10000 nM	CNC(=O)c1ccc(F)c([C@@H](C)Nc2c(Cl)cnc3ccc(-c4cnc(C(C)(C)O)nc4)cc23)c1 [Example 416, (R)-3-(1-((3-chloro-6-(2-(2-hydroxypropan-2-yl)pyrimidin-5-yl)quinolin-4-yl)amino)ethyl)-4-fluoro-N-methylbenzamide]
10000 to 25000 nM	CC(Nc1c(Cl)cnc2ccc(-c3ccc(C(C)(C)O)cc3)cc12)c1cocn1 (racemic) [Example 206, 2-(4-(3-chloro-4-((1-(oxazol-4-yl)ethyl)amino)quinolin-6-yl)phenyl)propan-2-ol]
1000 to 10000 nM	C[C@@H](Nc1c(Cl)c(C(=O)Nc2cccnc2)nc2ccc(-c3cnc(C(C)(C)O)nc3)cc12)c1cc(C#N)ccc1F [Example 385, (R)-3-chloro-4-((1-(5-cyano-2-fluorophenyl)ethyl)amino)-6-(2-(2-hydroxypropan-2-yl)pyrimidin-5-yl)-N-(pyridin-3-yl)quinoline-2-carboxamide]
< 1000 nM	Cc1nc2cc(F)c(-c3cnc(C(C)(C)O)nc3)nc2c(N[C@@H](c2cc(C#N)ccc2F)C(F)F)c1Cl [Example 499, (S)-3-(1-((3-chloro-7-fluoro-6-(2-(2-hydroxypropan-2-yl)pyrimidin-5-yl)-2-methyl-1,5-naphthyridin-4-yl)amino)-2,2-difluoroethyl)-4-fluorobenzonitrile]
< 1000 nM	C[C@@H](Nc1c(Cl)cnc2ccc(-c3cnc(C(C)(C)O)nc3)cc12)c1cc(-c2cncnc2)ccc1F [Example 340, (R)-2-(5-(3-chloro-4-((1-(2-fluoro-5-(pyrimidin-5-yl)phenyl)ethyl)amino)quinolin-6-yl)pyrimidin-2-yl) propan-2-ol]
1000 to 10000 nM	Cc1nc2ccc(-c3ccc(C(C)(C)O)cc3)cc2c(NC(C)c2ccsc2)c1Cl (centres unmarked) [Example 503, 2-(4-(3-chloro-2-methyl-4-((1-(thiophen-3-yl)ethyl)amino)quinolin-6-yl)phenyl)propan-2-ol]
< 1000 nM	CC(Nc1c(Cl)cnc2cc(F)c(-c3cnc(C(O)CO)nc3)cc12)c1ccccc1F (racemic) [Example 300, 1-(5-(3-chloro-7-fluoro-4-((1-(2-fluorophenyl)ethyl)amino)quinolin-6-yl)pyrimidin-2-yl)ethane-1,2-diol]
1000 to 10000 nM	Cc1nc2cc(F)c(-c3cnc(C(C)(C)O)nc3)cc2c(N[C@H](C)c2cc(CCC(=O)O)ccc2F)c1Cl [Example 446, (R)-3-(3-(1-((3-chloro-7-fluoro-6-(2-(2-hydroxypropan-2-yl)pyrimidin-5-yl)-2-methylquinolin-4-yl)amino)ethyl)-4-fluorophenyl)propanoic acid]
10000 to 25000 nM	CC(C)(O)c1ncc(-c2ccc3ncc(Cl)c(CNc4ccccc4)c3c2)cn1 [Example 11, 2-(5-(3-chloro-4-((phenylamino)methyl)quinolin-6-yl)pyrimidin-2-yl)propan-2-ol]

IC50	Structure (SMILES)
< 1000 nM	C[C@@H](Nc1c(Cl)cnc2ccc(-c3cnc(C(C)(C)O)nc3)cc12)c1cccc(Br)c1 [Example 319, (R)-2-(5-(4-((1-(3-bromophenyl)ethyl)amino)-3-chloroquinolin-6-yl)pyrimidin-2-yl)propan-2-ol]
1000 to 10000 nM	CC(Nc1c(Cl)cnc2cc(F)c(-c3ccc(C(O)C4CC4)cc3)cc12)c1ccccc1F (centres unmarked) [Example 263, (4-(3-chloro-7-fluoro-4-((1-(2-fluorophenyl)ethyl)amino)quinolin-6-yl)phenyl)(cyclopropyl)methanol]
< 1000 nM	C[C@@H](Nc1c(Cl)cnc2ccc(-c3cnc(C(C)(C)O)nc3)cc12)c1cc(-c2nnn(C)n2)ccc1F [Example 413, (R)-2-(5-(3-chloro-4-((1-(2-fluoro-5-(2-methyl-2H-tetrazol-5-yl)phenyl)ethyl)amino)quinolin-6-yl)pyrimidin-2-yl)propan-2-ol]
1000 to 10000 nM	C[C@@H](Nc1c(Cl)cnc2ccccc12)c1cc(-c2ccnc3[nH]ccc23)ccc1F [Example 525, (R)-3-chloro-N-(1-(2-fluoro-5-(1H-pyrrolo[2,3-b]pyridin-4-yl)phenyl)ethyl) quinolin-4-amine]
< 1000 nM	C[C@@H](Nc1c(Cl)cnc2cc(F)c(-c3cnc(C(C)(C)O)nc3)nc12)c1cc(CO)ccc1F [Example 505, (R)-2-(5-(7-chloro-3-fluoro-8-((1-(2-fluoro-5-(hydroxymethyl)phenyl)ethyl)amino)-1,5-naphthyridin-2-yl)pyrimidin-2-yl)propan-2-ol]
< 1000 nM	CC(Nc1c(Cl)cnc2cc(F)c(-c3ccc(C(O)CO)cc3)cc12)c1ccccc1F (centres unmarked) [Example 291, 1-(4-(3-chloro-7-fluoro-4-((1-(2-fluorophenyl)ethyl)amino)quinolin-6-yl)phenyl)ethane-1,2-diol]
< 1000 nM	Cc1ccc(C)c(Nc2c(Cl)c(CO)nc3ccc(-c4cnc(C(C)(C)O)nc4)cc23)c1 [Example 44, 2-(5-(3-chloro-4-((2,5-dimethylphenyl)amino)-2-(hydroxymethyl)quinolin-6-yl)pyrimidin-2-yl)propan-2-ol]
< 1000 nM	Cc1ncc(-c2ccc(F)c([C@@H](C)Nc3c(Cl)cnc4ccccc34)c2)cn1 [Example 535, (R)-3-chloro-N-(1-(2-fluoro-5-(2-methylpyrimidin-5-yl)phenyl)ethyl)quinolin-4-amine]
< 1000 nM	Cc1nc2ccc(-c3cnc(C(C)(C)O)nc3)cc2c(N[C@H](C)c2cccc(C#N)c2)c1Cl [Example 386, (R)-3-(1-((3-chloro-6-(2-(2-hydroxypropan-2-yl)pyrimidin-5-yl)-2-methylquinolin-4-yl)amino)ethyl)benzonitrile]
< 1000 nM	OC[C@@H]1CN(c2ncc(-c3ccc4ncc(Cl)c(N[C@@H](c5ccccc5F)C(F)F)c4c3)cn2)CCO1 [Example 87, ((S)-4-(5-(3-chloro-4-(((S)-2,2-difluoro-1-(2-fluorophenyl)ethyl)amino)quinolin-6-yl)pyrimidin-2-yl)morpholin-2-yl)methanol]
< 1000 nM	CC(Nc1c(Cl)cnc2ccc(-c3ccc(C(C)(C)O)cc3)cc12)c1ccco1 (racemic) [Example 192, 2-(4-(3-chloro-4-((1-(furan-2-yl)ethyl)amino)quinolin-6-yl)phenyl)propan-2-ol]
< 1000 nM	C[C@@H](Nc1c(Cl)cnc2ccc(-c3cnc(NC4(C(N)=O)CC4)nc3)cc12)c1ccccc1F [Example 587, (R)-1-((5-(3-chloro-4-((1-(2-fluorophenyl)ethyl)amino)quinolin-6-yl)pyrimidin-2-yl)amino)cyclopropane-1-carboxamide]
10000 to 25000 nM	C[C@@H](Nc1c(Cl)cnc2ccccc12)c1cc(-c2cnn(Cc3ccccc3)c2)ccc1F [Example 466, (R)—N-(1-(5-(1-benzyl-1H-pyrazol-4-yl)-2-fluorophenyl)ethyl)-3-chloroquinolin-4-amine]
< 1000 nM	CC(Nc1c(Cl)cnc2cc(F)c(-c3cnc(N4CCC(C(=O)O)CC4)nc3)cc12)c1ccccc1F (single isomer, unassigned) [Example 244, 1-(5-(3-chloro-7-fluoro-4-((1-(2-fluorophenyl)ethyl)amino)quinolin-6-yl)pyrimidin-2-yl)piperidine-4-carboxylic acid]
1000 to 10000 nM	COc1ccccc1-c1ccc(F)c([C@@H](C)Nc2c(Cl)cnc3ccccc23)c1 [Example 549, (R)-3-chloro-N-(1-(4-fluoro-2′-methoxy-[1,1′-biphenyl]-3-yl)ethyl)quinolin-4-amine]
< 1000 nM	Cc1nc2cc(F)c(-c3cnc(C(C)(C)O)nc3)nc2c(N[C@H](C)c2cc(C(N)=O)ccc2F)c1Cl [Example 584, (R)-3-(1-((3-chloro-7-fluoro-6-(2-(2-hydroxypropan-2-yl)pyrimidin-5-yl)-2-methyl-1,5-naphthyridin-4-yl)amino)ethyl)-4-fluorobenzamide]
